From PubChem BioAssay (NCI)
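Compound exposure: 48 hours, 5 concentrations, 96-well plates. TGI denotes the concentration required for complete inhibition of growth.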

Tests used:
Experiment in all cases: inhibition of tumour cell growth, NCI panel, 48 h
[1] = tested on: NCI-H226 lung
[2] = tested on: HOP-92 NSCLC
[3] = tested on: LXFL 529 NSCLC
[4] = tested on: DU-145 prostate
[5] = tested on: TK-10 renal
[6] = tested on: NCI-H23 lung
[7] = tested on: IGROV1 ovarian
[8] = tested on: LOX IMVI melanoma
[9] = tested on: DLD-1 colon
[10] = tested on: MALME-3M melanoma
[11] = tested on: M14 melanoma
[12] = tested on: SK-MEL-28 melanoma
[13] = tested on: T-47D breast
[14] = tested on: RXF 393 renal
[15] = tested on: SN12C renal
[16] = tested on: NCI-H522 lung
[17] = tested on: 786-0 renal
[18] = tested on: SK-OV-3 ovarian
[19] = tested on: HS 578T breast
[20] = tested on: SNB-78 CNS
[21] = tested on: BT-549 breast
[22] = tested on: HCT-116 colon
[23] = tested on: DMS 273 small cell lung
[24] = tested on: SK-MEL-5 melanoma
[25] = tested on: HT29 colon
[26] = tested on: MOLT-4 leukemia
[27] = tested on: EKVX NSCLC
[28] = tested on: CCRF-CEM leukemia
[29] = tested on: OVCAR-5 ovarian
[30] = tested on: SNB-75 CNS
[31] = tested on: MDA-N
[32] = tested on: NCI/ADR-RES ovarian
[33] = tested on: UACC-257 melanoma
[34] = tested on: SF-268 CNS
[35] = tested on: HOP-62 NSCLC
[36] = tested on: A549 NSCLC
[37] = tested on: SK-MEL-2 melanoma
[38] = tested on: OVCAR-4 ovarian
[39] = tested on: K-562 leukemia
[40] = tested on: PC-3 prostate
[41] = tested on: OVCAR-8 ovarian
[42] = tested on: SW-620 colon
[43] = tested on: HL-60(TB) leukemia
[44] = tested on: HCT-15 colon
[45] = tested on: SF-295 CNS
[46] = tested on: HCC-2998 colon
[47] = tested on: HOP-18 NSCLC
[48] = tested on: KM20L2 colon
[49] = tested on: SR leukemia
[50] = tested on: KM12 colon
[51] = tested on: COLO 205 colon
[52] = tested on: M19-MEL melanoma
[53] = tested on: XF 498 CNS
[54] = tested on: DMS 114 small cell lung
[55] = tested on: MCF7 breast
[56] = tested on: ACHN renal
[57] = tested on: A498 renal
[58] = tested on: CAKI-1 renal
[59] = tested on: UO-31 renal
[60] = tested on: U251 CNS
[61] = tested on: UACC-62 melanoma
[62] = tested on: MDA-MB-231 breast
[63] = tested on: SNB-19 CNS
[64] = tested on: SF-539 CNS
[65] = tested on: OVCAR-3 ovarian
[66] = tested on: MDA-MB-435
[67] = tested on: NCI-H460 lung
[68] = tested on: RPMI-8226 leukemia

CC(=O)NC(CCCCN(Cc1ccccc1)C(=O)N(CCCl)N=O)C(=O)NCc1ccccc1 (stereo not given)
TGI [1]: > 96.7 µM | TGI [2]: 68.6 µM | TGI [3]: > 100 µM | TGI [4]: > 51.9 µM | TGI [5]: 73.9 µM | TGI [6]: 50.3 µM | TGI [7]: 60 µM | TGI [8]: > 58.1 µM | TGI [9]: > 79 µM | TGI [10]: 58.1 µM | TGI [11]: > 71.5 µM | TGI [12]: > 100 µM | TGI [13]: 36.7 µM | TGI [14]: 51.3 µM | TGI [15]: > 77.8 µM | TGI [16]: 53.8 µM | TGI [17]: 24.9 µM | TGI [18]: > 76.3 µM | TGI [19]: 49.7 µM | TGI [20]: > 100 µM | TGI [21]: 65.8 µM | TGI [22]: > 62.6 µM | TGI [23]: > 100 µM | TGI [24]: > 100 µM | TGI [25]: > 72.4 µM | TGI [26]: > 82.1 µM | TGI [27]: 97.9 µM | TGI [28]: > 84.3 µM | TGI [29]: > 87.3 µM | TGI [30]: 63.8 µM | TGI [31]: 36.3 µM | TGI [32]: 34.3 µM | TGI [33]: > 44.6 µM | TGI [34]: 40.8 µM | TGI [35]: 47 µM | TGI [36]: 49.5 µM | TGI [37]: 62.2 µM | TGI [38]: > 100 µM | TGI [39]: > 89.4 µM | TGI [40]: > 100 µM | TGI [41]: 43.2 µM | TGI [42]: > 70.7 µM | TGI [43]: 65.4 µM | TGI [44]: > 100 µM | TGI [45]: 43.4 µM | TGI [46]: > 100 µM | TGI [47]: 87.5 µM | TGI [48]: > 69.5 µM | TGI [49]: 47.6 µM | TGI [50]: 63.7 µM | TGI [51]: 67.2 µM | TGI [52]: > 100 µM | TGI [53]: > 49.8 µM | TGI [54]: > 100 µM | TGI [55]: > 100 µM | TGI [56]: 41 µM | TGI [57]: > 100 µM | TGI [58]: 97.7 µM | TGI [59]: 57.2 µM | TGI [60]: 39.7 µM | TGI [61]: 36.5 µM | TGI [62]: 47.9 µM | TGI [63]: 60.4 µM | TGI [64]: 28.5 µM | TGI [65]: > 100 µM | TGI [66]: > 100 µM | TGI [67]: 42.9 µM | TGI [68]: 79 µM

COCOCC[C@@H]1CC=CC(NC(=O)OCc2ccccc2)C1/C=C/C(=O)CCC1OCCO1 (stereo not given in full)
TGI [1]: > 100 µM | TGI [2]: > 100 µM | TGI [3]: 73 µM | TGI [5]: > 100 µM | TGI [6]: 97.8 µM | TGI [7]: > 100 µM | TGI [8]: 34 µM | TGI [9]: 33.4 µM | TGI [10]: > 100 µM | TGI [11]: 88.4 µM | TGI [12]: > 63.3 µM | TGI [14]: > 75.9 µM | TGI [15]: > 68.5 µM | TGI [16]: 34.7 µM | TGI [17]: > 100 µM | TGI [18]: > 100 µM | TGI [20]: > 100 µM | TGI [22]: 33.1 µM | TGI [23]: > 59.1 µM | TGI [24]: > 100 µM | TGI [25]: > 100 µM | TGI [26]: 43.4 µM | TGI [27]: > 100 µM | TGI [28]: 75.7 µM | TGI [29]: > 100 µM | TGI [30]: > 90 µM | TGI [33]: 66.3 µM | TGI [34]: 99 µM | TGI [35]: > 100 µM | TGI [36]: > 100 µM | TGI [37]: > 76.5 µM | TGI [38]: > 74.4 µM | TGI [39]: > 100 µM | TGI [41]: 39.3 µM | TGI [42]: 59.5 µM | TGI [43]: 51 µM | TGI [44]: 32.2 µM | TGI [45]: > 100 µM | TGI [46]: > 100 µM | TGI [47]: > 100 µM | TGI [48]: > 93.3 µM | TGI [49]: 23.6 µM | TGI [50]: 45.4 µM | TGI [51]: 37.9 µM | TGI [52]: 43.3 µM | TGI [53]: > 100 µM | TGI [54]: 86.5 µM | TGI [56]: > 100 µM | TGI [57]: > 100 µM | TGI [58]: > 100 µM | TGI [59]: > 100 µM | TGI [60]: 70.6 µM | TGI [61]: > 75.4 µM | TGI [63]: > 100 µM | TGI [64]: > 63 µM | TGI [65]: > 76.1 µM | TGI [67]: > 100 µM | TGI [68]: 63.5 µM

O=C1C2ON3c4ccccc4C(=O)C3(c3ccccc3)C2C(=O)N1c1ccccc1 (stereo not given)
TGI [1]: > 100 µM | TGI [2]: > 100 µM | TGI [3]: > 100 µM | TGI [6]: > 100 µM | TGI [7]: > 100 µM | TGI [9]: > 100 µM | TGI [10]: > 100 µM | TGI [11]: > 100 µM | TGI [12]: > 100 µM | TGI [14]: > 100 µM | TGI [15]: > 100 µM | TGI [16]: > 100 µM | TGI [17]: > 100 µM | TGI [18]: > 100 µM | TGI [20]: > 100 µM | TGI [22]: > 100 µM | TGI [23]: > 100 µM | TGI [24]: > 100 µM | TGI [25]: > 100 µM | TGI [26]: > 100 µM | TGI [27]: > 100 µM | TGI [28]: > 100 µM | TGI [30]: > 100 µM | TGI [33]: > 100 µM | TGI [34]: > 100 µM | TGI [35]: > 100 µM | TGI [36]: > 100 µM | TGI [38]: > 100 µM | TGI [39]: > 100 µM | TGI [41]: > 100 µM | TGI [42]: > 100 µM | TGI [43]: > 100 µM | TGI [44]: > 100 µM | TGI [45]: > 100 µM | TGI [46]: > 100 µM | TGI [47]: > 100 µM | TGI [48]: > 100 µM | TGI [49]: > 100 µM | TGI [51]: > 100 µM | TGI [52]: > 100 µM | TGI [53]: > 100 µM | TGI [56]: > 100 µM | TGI [57]: > 100 µM | TGI [59]: > 100 µM | TGI [60]: > 100 µM | TGI [61]: > 100 µM | TGI [63]: > 100 µM | TGI [64]: > 100 µM | TGI [68]: > 100 µM
